Calls of active or inactive are those of the source. The rule behind the calls is not given here.
Experiments:
Homo sapiens [1] = species: Homo sapiens; test: Vasoconstrictor activity in human relative to betamethasone valerate; format: functional, organism-based
Homo sapiens [2] = species: Homo sapiens; test: Skin stripping in human by stripped-skin assay relative to betamethasone valerate; format: functional, organism-based

Compound | Activity (Homo sapiens [1]) | Activity (Homo sapiens [2])
CCC(=O)O[C@]1(C(=O)CCl)[C@H](OC(C)=O)C[C@H]2[C@@H]3CCC4=CC(=O)C=C[C@]4(C)[C@@]3(F)[C@@H](O)C[C@@]21C | inactive | inactive
CC(=O)O[C@@H]1C[C@H]2[C@@H]3CCC4=CC(=O)C=C[C@]4(C)[C@@]3(F)[C@@H](O)C[C@]2(C)[C@@]1(OC(C)=O)C(=O)CCl | inactive | inactive
CCCCC(=O)O[C@]1(C(=O)CCl)[C@H](OC)C[C@H]2[C@@H]3CCC4=CC(=O)CC[C@]4(C)[C@@]3(F)[C@@H](O)C[C@@]21C | inactive | inactive
CO[C@@H]1C[C@H]2[C@@H]3CCC4=CC(=O)CC[C@]4(C)[C@@]3(F)[C@@H](O)C[C@]2(C)[C@@]1(OC(C)=O)C(=O)CCl | inactive | inactive
CCO[C@@H]1C[C@H]2[C@@H]3CCC4=CC(=O)CC[C@]4(C)[C@@]3(F)[C@@H](O)C[C@]2(C)[C@@]1(OC(C)=O)C(=O)CCl | inactive | inactive
